Measurements reported in PubChem BioAssay AID200 (DTP/NCI, 2004).
Several values for one entry are separate records, joined by “and”; a condition that tells them apart may be missing. Equal entries are not always repeated. Inconclusive results and toxic doses are left out. *1 amine or outer side, *2 acyl side, *3 side chain or, on linkers, in order; H or OH if unused. Where a SMILES comes first, the peptide text is derived from it. Bridges are numbered along the chain shown (N, C = ends). [ ]: non-standard residue; d: D form. The star is where a group is joined. X5 = CC(C)C(C)C(C(=O)[*:2])N(C)[*:1]; Picolinoyl(3-OH) = O=C(c1ncccc1O)*; NMePhg = CN[CH](C(=O)O)c1ccccc1; Hyp = O=C(O)[CH]1C[CH](O)CN1; Sar = CNCC(=O)O

System: B6C3F1 mice, B16 melanoma ip, median survival T/C
Test: NCI In Vivo Anticancer Drug Screen. Data for tumor model B16 Melanoma (intraperitoneal) in B6C3F1 mice
Settings: endpoint: median survival time, higher = longer survival
In short: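 Values are T/C ratios: the measurement in treated animals divided by that in vehicle-treated controls, using survival or tumor size in mice carrying transplantable tumors.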

[1] = dose: 50.0 mg/kg/injection, schedule: Q01DX009 (ip), vehicle: saline + Tween-80 + alcohol
[2] = dose: 6.25 mg/kg/injection, schedule: Q01DX009 (ip), vehicle: Klucel (hydroxypropylcellulose) (HPC)
[3] = dose: 12.5 mg/kg/injection, schedule: Q01DX009 (ip), vehicle: Klucel (hydroxypropylcellulose) (HPC)
[4] = dose: 25.0 mg/kg/injection, schedule: Q01DX009 (ip), vehicle: Klucel (hydroxypropylcellulose) (HPC)
[5] = dose: 50.0 mg/kg/injection, schedule: Q01DX009 (ip), vehicle: Klucel (hydroxypropylcellulose) (HPC)
[6] = dose: 100.0 mg/kg/injection, schedule: Q01DX009 (ip), vehicle: Klucel (hydroxypropylcellulose) (HPC)
[7] = dose: 200.0 mg/kg/injection, schedule: Q01DX009 (ip), vehicle: Klucel (hydroxypropylcellulose) (HPC)
[8] = dose: 50.0 mg/kg/injection, schedule: Q01DX009 (ip), vehicle: saline with Tween-80
[9] = dose: 100.0 mg/kg/injection, schedule: Q01DX009 (ip), vehicle: saline with Tween-80
[10] = dose: 25.0 mg/kg/injection, schedule: Q01DX009 (ip), vehicle: saline with Tween-80
[11] = dose: 12.5 mg/kg/injection, schedule: Q01DX009 (ip), vehicle: saline with Tween-80
[12] = dose: 400.0 mg/kg/injection, schedule: Q01DX009 (ip), vehicle: Klucel (hydroxypropylcellulose) (HPC)

O=NN(CCCl)C(=O)NC1CCC(=O)NC1=O (stereo not given)
T/C (dose: 0.8 mg/kg/injection, schedule: Q01DX005 (ip), vehicle: saline + alcohol): 118 % of control
T/C (dose: 0.8 mg/kg/injection, schedule: Q01DX005 (iv), vehicle: saline + alcohol): 96 % of control
T/C (dose: 1.6 mg/kg/injection, schedule: Q01DX005 (ip), vehicle: saline + alcohol): 155 % of control
T/C (dose: 2.0 mg/kg/injection, schedule: Q01DX005 (ip), vehicle: saline + alcohol): 175 % of control
T/C (dose: 2.0 mg/kg/injection, schedule: Q01DX005 (iv), vehicle: saline + alcohol): 102 % of control
T/C (dose: 3.2 mg/kg/injection, schedule: Q01DX005 (ip), vehicle: saline + alcohol): 197 % of control
T/C (dose: 3.2 mg/kg/injection, schedule: Q01DX005 (iv), vehicle: saline + alcohol): 151 % of control
T/C (dose: 4.0 mg/kg/injection, schedule: Q01DX001 (ip), vehicle: saline + alcohol): 195 % of control
T/C (dose: 4.0 mg/kg/injection, schedule: Q01DX001 (iv), vehicle: saline + alcohol): 124 % of control
T/C (dose: 4.0 mg/kg/injection, schedule: Q01DX005 (ip), vehicle: saline + alcohol): 300 % of control
T/C (dose: 4.0 mg/kg/injection, schedule: Q01DX005 (iv), vehicle: saline + alcohol): 180 % of control
T/C (dose: 6.4 mg/kg/injection, schedule: Q01DX005 (ip), vehicle: saline + alcohol): 275 % of control
T/C (dose: 8.0 mg/kg/injection, schedule: Q01DX001 (ip), vehicle: saline + alcohol): 200 % of control and 291 % of control
T/C (dose: 8.0 mg/kg/injection, schedule: Q01DX001 (iv), vehicle: saline + alcohol): 162 % of control
T/C (dose: 8.0 mg/kg/injection, schedule: Q01DX005 (ip), vehicle: saline + alcohol): 105 % of control
T/C (dose: 8.0 mg/kg/injection, schedule: Q01DX005 (iv), vehicle: saline + alcohol): 150 % of control
T/C (dose: 8.0 mg/kg/injection, schedule: Q01DX005 (oral), vehicle: saline + alcohol): 210 % of control
T/C (dose: 16.0 mg/kg/injection, schedule: Q01DX001 (ip), vehicle: saline + alcohol): 255 % of control and 317 % of control
T/C (dose: 16.0 mg/kg/injection, schedule: Q01DX001 (iv), vehicle: saline + alcohol): 194 % of control and 216 % of control
T/C (dose: 16.0 mg/kg/injection, schedule: Q01DX001 (oral), vehicle: saline + alcohol): 183 % of control
T/C (dose: 32.0 mg/kg/injection, schedule: Q01DX001 (oral), vehicle: saline + alcohol): 89 % of control

OCC12COCN1COC2
T/C (dose: 12.5 mg/kg/injection, schedule: Q01DX009 (ip), vehicle: saline): 98 % of control
T/C (dose: 25.0 mg/kg/injection, schedule: Q01DX009 (ip), vehicle: saline): 113 % of control
T/C (dose: 50.0 mg/kg/injection, schedule: Q01DX009 (ip), vehicle: saline): 113 % of control and 101 % of control
T/C (dose: 100.0 mg/kg/injection, schedule: Q01DX009 (ip), vehicle: saline): 110 % of control and 100 % of control
T/C (dose: 200.0 mg/kg/injection, schedule: Q01DX009 (ip), vehicle: saline): 108 % of control and 110 % of control
T/C (dose: 400.0 mg/kg/injection, schedule: Q01DX009 (ip), vehicle: saline): 121 % of control and 105 % of control

CCCCC/C(=C\c1ccccc1)C1OCC(COCC)O1 (stereo not given)
T/C (dose: 6.25 mg/kg/injection, schedule: Q01DX009 (ip), vehicle: saline + Tween-80 + alcohol): 87 % of control
T/C (dose: 12.5 mg/kg/injection, schedule: Q01DX009 (ip), vehicle: saline + Tween-80 + alcohol): 91 % of control
T/C (dose: 25.0 mg/kg/injection, schedule: Q01DX009 (ip), vehicle: saline + Tween-80 + alcohol): 94 % of control
T/C [1]: 93 % of control

Cc1ccc2c(ccc(CC(=S)[S-])[n+]2C)c1
T/C [2]: 92 % of control and 93 % of control
T/C [3]: 92 % of control and 99 % of control
T/C [4]: 87 % of control and 88 % of control
T/C [5]: 89 % of control

CC1=CC(=Nc2ccc(N(CCCl)CCCl)cc2)C=C(C)C1=O
T/C [2]: 150 % of control
T/C [3]: 163 % of control and 176 % of control
T/C [4]: 186 % of control

CC(C)CC1NC(=O)C(NC(=O)c2ncccc2O)C(C)OC(=O)C(c2ccccc2)N(C)C(=O)C(C)NC(=O)C(C(C)C(C)C)N(C)C(=O)CN(C)C(=O)C2CC(O)CN2C1=O (stereo not given) ({Picolinoyl(3-OH)}-TL[Hyp][Sar][X5]A[NMePhg]; ester 1-C; configuration not given here)
T/C [5]: 103 % of control
T/C [6]: 107 % of control
T/C [7]: 111 % of control

Cc1cccc2c1CC(C(C)C)C2 (stereo not given)
T/C [8]: 105 % of control
T/C [9]: 93 % of control

NC1(C(=O)O)CCCc2ccc(N(CCCl)CCCl)cc21 (stereo not given)
T/C (dose: 2.5 mg/kg/injection, schedule: Q01DX009 (ip), vehicle: saline): 120 % of control
T/C (dose: 10.0 mg/kg/injection, schedule: Q01DX009 (ip), vehicle: saline with Tween-80): 121 % of control
T/C (dose: 10.0 mg/kg/injection, schedule: Q01DX009 (ip), vehicle: saline): 157 % of control
T/C (dose: 20.0 mg/kg/injection, schedule: Q01DX009 (ip), vehicle: saline): 189 % of control

CC1(C)CC2(C)OC2C2(C1)N=NC(=Nc1ccccc1)O2 (stereo not given)
T/C [10]: 96 % of control
T/C [8]: 100 % of control
T/C [9]: 89 % of control

Cc1ncc(CO)c(CO)c1O
T/C (dose: 50.0 mg/kg/injection, schedule: Q03HX009 (ip), vehicle: suspension in saline): 106 % of control
T/C (dose: 100.0 mg/kg/injection, schedule: Q03HX009 (ip), vehicle: suspension in saline): 102 % of control
T/C (dose: 200.0 mg/kg/injection, schedule: Q03HX009 (ip), vehicle: suspension in saline): 102 % of control
T/C (dose: 400.0 mg/kg/injection, schedule: Q03HX009 (ip), vehicle: suspension in saline): 98 % of control
T/C (dose: 800.0 mg/kg/injection, schedule: Q03HX009 (ip), vehicle: suspension in saline): 96 % of control

O=C(Nc1nncs1)c1cccs1
T/C [11]: 110 % of control
T/C [10]: 105 % of control
T/C [8]: 101 % of control
T/C [9]: 108 % of control and 106 % of control
T/C (dose: 200.0 mg/kg/injection, schedule: Q01DX009 (ip), vehicle: saline with Tween-80): 121 % of control and 104 % of control

CC(=O)Oc1ccc2c3c1O[C@H]1[C@@H](OC(C)=O)C=C[C@H]4[C@@H](C2)N(C)CC[C@@]341
T/C (dose: 0.5 mg/kg/injection, schedule: Q01DX009 (ip), vehicle: saline): 101 % of control
T/C (dose: 1.0 mg/kg/injection, schedule: Q01DX009 (ip), vehicle: saline): 93 % of control
T/C (dose: 2.0 mg/kg/injection, schedule: Q01DX009 (ip), vehicle: saline): 90 % of control
T/C (dose: 4.0 mg/kg/injection, schedule: Q01DX009 (ip), vehicle: saline): 100 % of control
T/C (dose: 8.0 mg/kg/injection, schedule: Q01DX009 (ip), vehicle: saline): 98 % of control
T/C (dose: 16.0 mg/kg/injection, schedule: Q01DX009 (ip), vehicle: saline): 86 % of control
T/C (dose: 32.0 mg/kg/injection, schedule: Q01DX009 (ip), vehicle: saline): 93 % of control
T/C (dose: 64.0 mg/kg/injection, schedule: Q01DX009 (ip), vehicle: saline): 102 % of control
T/C (dose: 128.0 mg/kg/injection, schedule: Q01DX009 (ip), vehicle: saline): 110 % of control

O=C1CCCCC1C(=O)C(F)(F)F (stereo not given)
T/C (dose: 4.5 mg/kg/injection, schedule: Q01DX009 (ip), vehicle: saline + Tween-80 + alcohol): 103 % of control
T/C (dose: 9.0 mg/kg/injection, schedule: Q01DX009 (ip), vehicle: saline + Tween-80 + alcohol): 93 % of control
T/C (dose: 18.0 mg/kg/injection, schedule: Q01DX009 (ip), vehicle: saline + Tween-80 + alcohol): 87 % of control
T/C [1]: 102 % of control

NCC(=O)NC(Cc1ccccc1)C(=O)NCC(=O)O (stereo not given) (HELM PEPTIDE1{G.[O=C(C(Cc1ccccc1)N[*:1])[*:2]].G}$$$$V2.0)
T/C [6]: 103 % of control
T/C [7]: 95 % of control
T/C [12]: 100 % of control

COc1ccc(S(=O)(=O)N/N=C/C(=O)O)cc1
T/C (dose: 6.25 mg/kg/injection, schedule: Q01DX009 (ip), vehicle: saline with Tween-80): 101 % of control and 104 % of control
T/C [11]: 116 % of control and 120 % of control
T/C [8]: 119 % of control

Cc1ccc(N=Nc2c(O)ccc3n[nH]nc23)cc1
T/C [4]: 94 % of control
T/C [5]: 96 % of control
T/C [6]: 114 % of control

CC(O)C(NC(=O)CNC(=O)CNC(=O)OCc1ccccc1)C(=O)O (stereo not given) (HELM PEPTIDE1{[O=C(OCc1ccccc1)[*:2]].G.G.[CC(O)C(N[*:1])C(=O)O]}$$$$V2.0)
T/C [6]: 103 % of control
T/C [7]: 106 % of control
T/C [12]: 113 % of control
